Experiments:
[1] = molecular target: T1, Alpha-1A adrenergic receptor (Homo sapiens, UniProt P35348)
T1 sequence (P35348 whole entry): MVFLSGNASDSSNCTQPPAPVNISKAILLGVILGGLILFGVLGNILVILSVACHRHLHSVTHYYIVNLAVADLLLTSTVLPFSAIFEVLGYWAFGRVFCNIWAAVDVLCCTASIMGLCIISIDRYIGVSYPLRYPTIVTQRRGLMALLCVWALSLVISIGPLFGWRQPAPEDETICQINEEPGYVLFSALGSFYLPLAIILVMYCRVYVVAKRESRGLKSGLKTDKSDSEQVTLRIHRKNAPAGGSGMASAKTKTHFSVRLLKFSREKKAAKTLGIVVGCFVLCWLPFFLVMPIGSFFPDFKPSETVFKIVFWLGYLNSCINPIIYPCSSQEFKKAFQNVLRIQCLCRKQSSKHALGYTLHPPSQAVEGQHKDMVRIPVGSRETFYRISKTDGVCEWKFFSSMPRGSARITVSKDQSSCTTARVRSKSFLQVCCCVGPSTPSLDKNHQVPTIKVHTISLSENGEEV

[2] = molecular target: T2, Type-1 angiotensin II receptor (Homo sapiens, UniProt P30556)
T2 sequence (P30556 whole entry): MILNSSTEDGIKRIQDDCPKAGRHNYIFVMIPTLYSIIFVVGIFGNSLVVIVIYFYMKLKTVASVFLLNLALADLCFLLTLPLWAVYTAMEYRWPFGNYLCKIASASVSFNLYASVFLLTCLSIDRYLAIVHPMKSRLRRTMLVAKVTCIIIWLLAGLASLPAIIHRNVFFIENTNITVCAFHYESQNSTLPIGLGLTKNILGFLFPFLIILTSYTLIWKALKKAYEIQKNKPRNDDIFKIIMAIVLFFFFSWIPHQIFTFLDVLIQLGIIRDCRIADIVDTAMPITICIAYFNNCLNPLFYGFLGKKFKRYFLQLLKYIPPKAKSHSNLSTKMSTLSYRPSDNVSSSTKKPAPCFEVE

Vasopressin V1a receptor = Vasopressin V1a receptor (Homo sapiens, UniProt P37288)
[3] = molecular target: T3, Muscarinic acetylcholine receptor M2 (Homo sapiens, UniProt P08172); type: functional, cell-based
T3 sequence (P08172 whole entry): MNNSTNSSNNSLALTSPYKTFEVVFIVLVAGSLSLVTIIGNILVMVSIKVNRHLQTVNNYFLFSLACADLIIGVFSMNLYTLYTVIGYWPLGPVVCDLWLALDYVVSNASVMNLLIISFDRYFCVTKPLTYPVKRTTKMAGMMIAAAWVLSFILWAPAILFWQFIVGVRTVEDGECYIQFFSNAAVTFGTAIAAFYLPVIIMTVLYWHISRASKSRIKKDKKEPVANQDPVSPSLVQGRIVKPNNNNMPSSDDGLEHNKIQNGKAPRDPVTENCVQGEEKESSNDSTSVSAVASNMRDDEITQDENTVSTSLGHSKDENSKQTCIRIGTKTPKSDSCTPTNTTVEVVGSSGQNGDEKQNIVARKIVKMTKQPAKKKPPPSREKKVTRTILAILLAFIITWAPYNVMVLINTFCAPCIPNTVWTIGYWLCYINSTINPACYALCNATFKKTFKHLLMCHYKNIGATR

[4] = molecular target: T3, Muscarinic acetylcholine receptor M2; type: functional, cell-based; remark: listed apart in the source
[5] = molecular target: Neuronal acetylcholine receptor subunit alpha-4 (Homo sapiens, UniProt P43681)
[6] = molecular target: T4, 5-hydroxytryptamine receptor 3A (Homo sapiens, UniProt P46098); type: functional
T4 sequence (P46098 whole entry): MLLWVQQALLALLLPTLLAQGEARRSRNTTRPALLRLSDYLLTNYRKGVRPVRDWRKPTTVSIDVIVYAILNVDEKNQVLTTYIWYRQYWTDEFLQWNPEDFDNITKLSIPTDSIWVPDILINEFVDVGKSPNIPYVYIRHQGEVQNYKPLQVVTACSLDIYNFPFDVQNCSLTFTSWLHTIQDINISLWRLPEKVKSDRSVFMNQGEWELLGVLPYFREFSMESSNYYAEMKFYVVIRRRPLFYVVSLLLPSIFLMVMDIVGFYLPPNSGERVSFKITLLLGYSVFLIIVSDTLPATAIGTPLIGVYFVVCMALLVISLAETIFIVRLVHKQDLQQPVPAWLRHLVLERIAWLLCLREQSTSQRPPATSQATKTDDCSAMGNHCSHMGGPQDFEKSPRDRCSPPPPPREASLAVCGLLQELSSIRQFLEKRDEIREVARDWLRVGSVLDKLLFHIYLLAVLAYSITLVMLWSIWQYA

[7] = molecular target: Voltage-gated inwardly rectifying potassium channel KCNH2 (Homo sapiens, UniProt Q12809); type: functional; conditions: read-out: AC50
Melanocortin receptor 3 = Melanocortin receptor 3 (Homo sapiens, UniProt P41968)
[8] = molecular target: Kappa-type opioid receptor (Homo sapiens, UniProt P41145)
[9] = molecular target: T5, Amine oxidase [flavin-containing] A (Homo sapiens, UniProt P21397); type: functional
T5 sequence (P21397 whole entry): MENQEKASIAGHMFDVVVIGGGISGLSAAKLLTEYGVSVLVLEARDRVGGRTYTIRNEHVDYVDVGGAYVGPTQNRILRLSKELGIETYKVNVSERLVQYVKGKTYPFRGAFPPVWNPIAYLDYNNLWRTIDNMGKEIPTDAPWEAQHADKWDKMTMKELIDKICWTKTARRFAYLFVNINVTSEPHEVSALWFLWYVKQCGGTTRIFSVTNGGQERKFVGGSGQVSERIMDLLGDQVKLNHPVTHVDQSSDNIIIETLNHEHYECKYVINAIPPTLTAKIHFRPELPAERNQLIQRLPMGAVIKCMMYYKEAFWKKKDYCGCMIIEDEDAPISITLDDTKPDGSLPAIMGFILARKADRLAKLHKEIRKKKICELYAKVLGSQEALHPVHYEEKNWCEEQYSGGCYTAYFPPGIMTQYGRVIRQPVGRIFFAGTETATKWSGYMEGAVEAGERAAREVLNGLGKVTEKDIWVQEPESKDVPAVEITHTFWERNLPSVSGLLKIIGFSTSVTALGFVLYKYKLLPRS
Further: assay procedure not described here.

Sequence of Melanocortin receptor 3 (P41968 whole entry): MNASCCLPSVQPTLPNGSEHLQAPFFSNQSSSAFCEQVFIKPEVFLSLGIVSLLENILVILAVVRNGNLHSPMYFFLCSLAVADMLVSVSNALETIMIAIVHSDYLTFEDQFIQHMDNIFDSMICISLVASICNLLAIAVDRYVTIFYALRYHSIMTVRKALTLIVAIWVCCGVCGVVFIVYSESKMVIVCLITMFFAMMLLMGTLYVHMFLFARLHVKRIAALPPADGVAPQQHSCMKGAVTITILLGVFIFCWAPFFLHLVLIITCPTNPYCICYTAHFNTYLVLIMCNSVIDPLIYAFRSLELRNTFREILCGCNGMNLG
Sequence of Voltage-gated inwardly rectifying potassium channel KCNH2 (Q12809 whole entry): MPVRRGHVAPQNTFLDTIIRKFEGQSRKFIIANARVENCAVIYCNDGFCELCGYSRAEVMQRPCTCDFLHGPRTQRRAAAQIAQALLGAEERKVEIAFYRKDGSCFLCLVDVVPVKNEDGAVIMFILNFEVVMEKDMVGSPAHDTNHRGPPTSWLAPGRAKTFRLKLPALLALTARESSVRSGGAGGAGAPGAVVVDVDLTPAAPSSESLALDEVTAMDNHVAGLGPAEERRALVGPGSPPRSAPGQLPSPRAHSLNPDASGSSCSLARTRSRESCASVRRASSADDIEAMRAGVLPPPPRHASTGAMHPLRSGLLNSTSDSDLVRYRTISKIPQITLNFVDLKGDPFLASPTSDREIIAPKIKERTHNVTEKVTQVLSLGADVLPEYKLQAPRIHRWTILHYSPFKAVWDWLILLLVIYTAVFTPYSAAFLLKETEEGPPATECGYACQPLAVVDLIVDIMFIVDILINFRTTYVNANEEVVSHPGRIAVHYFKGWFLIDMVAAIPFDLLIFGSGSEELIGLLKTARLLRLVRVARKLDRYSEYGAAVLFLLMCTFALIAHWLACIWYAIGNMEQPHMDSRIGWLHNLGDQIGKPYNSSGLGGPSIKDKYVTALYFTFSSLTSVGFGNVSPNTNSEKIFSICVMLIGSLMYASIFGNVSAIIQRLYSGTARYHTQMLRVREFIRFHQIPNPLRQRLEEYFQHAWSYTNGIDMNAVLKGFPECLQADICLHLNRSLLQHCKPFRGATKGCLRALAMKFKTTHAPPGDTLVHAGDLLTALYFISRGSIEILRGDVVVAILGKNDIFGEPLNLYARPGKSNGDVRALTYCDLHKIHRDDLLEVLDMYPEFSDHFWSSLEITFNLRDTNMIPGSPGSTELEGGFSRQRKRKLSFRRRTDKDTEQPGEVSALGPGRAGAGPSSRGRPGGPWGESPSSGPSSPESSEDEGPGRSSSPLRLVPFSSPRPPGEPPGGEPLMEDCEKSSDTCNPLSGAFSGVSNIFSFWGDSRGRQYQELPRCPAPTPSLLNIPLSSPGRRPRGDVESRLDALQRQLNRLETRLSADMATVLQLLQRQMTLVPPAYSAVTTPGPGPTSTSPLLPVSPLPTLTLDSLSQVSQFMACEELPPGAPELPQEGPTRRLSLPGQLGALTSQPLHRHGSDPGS
Sequence of Vasopressin V1a receptor (P37288 whole entry): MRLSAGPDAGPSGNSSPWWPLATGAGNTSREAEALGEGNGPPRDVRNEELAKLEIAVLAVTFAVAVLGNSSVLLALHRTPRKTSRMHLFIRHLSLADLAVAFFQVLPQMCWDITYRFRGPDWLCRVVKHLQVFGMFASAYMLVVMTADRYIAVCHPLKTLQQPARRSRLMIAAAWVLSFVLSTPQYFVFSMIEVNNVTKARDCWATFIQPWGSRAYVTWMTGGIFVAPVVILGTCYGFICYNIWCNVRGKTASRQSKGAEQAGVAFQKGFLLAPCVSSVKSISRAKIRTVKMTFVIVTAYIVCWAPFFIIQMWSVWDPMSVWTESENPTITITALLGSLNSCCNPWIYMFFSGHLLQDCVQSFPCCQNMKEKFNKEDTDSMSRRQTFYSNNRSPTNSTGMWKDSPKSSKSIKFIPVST
Sequence of Neuronal acetylcholine receptor subunit alpha-4 (P43681 whole entry): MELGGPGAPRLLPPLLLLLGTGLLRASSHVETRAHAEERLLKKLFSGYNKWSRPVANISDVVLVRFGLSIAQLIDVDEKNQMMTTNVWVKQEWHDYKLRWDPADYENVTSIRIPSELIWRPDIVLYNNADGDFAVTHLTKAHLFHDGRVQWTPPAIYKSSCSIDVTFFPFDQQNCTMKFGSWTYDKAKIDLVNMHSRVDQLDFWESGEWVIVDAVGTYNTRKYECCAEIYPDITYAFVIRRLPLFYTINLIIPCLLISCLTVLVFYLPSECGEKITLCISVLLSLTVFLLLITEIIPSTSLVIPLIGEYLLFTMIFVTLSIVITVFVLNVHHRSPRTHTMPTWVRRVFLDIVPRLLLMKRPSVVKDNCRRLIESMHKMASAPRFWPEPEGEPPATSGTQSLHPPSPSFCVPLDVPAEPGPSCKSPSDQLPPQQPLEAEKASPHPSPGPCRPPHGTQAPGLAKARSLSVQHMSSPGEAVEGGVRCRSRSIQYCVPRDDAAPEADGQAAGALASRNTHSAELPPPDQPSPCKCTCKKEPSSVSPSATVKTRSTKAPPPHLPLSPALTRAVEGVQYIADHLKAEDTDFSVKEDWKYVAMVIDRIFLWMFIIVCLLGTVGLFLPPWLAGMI
Sequence of Kappa-type opioid receptor (P41145 whole entry): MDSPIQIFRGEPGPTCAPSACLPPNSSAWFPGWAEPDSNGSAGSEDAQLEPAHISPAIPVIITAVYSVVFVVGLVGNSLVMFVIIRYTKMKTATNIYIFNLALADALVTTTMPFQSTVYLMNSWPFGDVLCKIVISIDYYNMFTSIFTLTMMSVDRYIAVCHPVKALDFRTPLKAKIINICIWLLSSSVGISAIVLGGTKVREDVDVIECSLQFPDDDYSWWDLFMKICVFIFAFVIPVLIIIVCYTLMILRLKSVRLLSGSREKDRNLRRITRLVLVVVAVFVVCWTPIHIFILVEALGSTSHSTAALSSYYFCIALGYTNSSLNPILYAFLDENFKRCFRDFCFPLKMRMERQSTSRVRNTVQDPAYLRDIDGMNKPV

Compound | AC50 [1] | AC50 [2] | AC50 (Vasopressin V1a receptor) | AC50 [3] | AC50 [4] | AC50 [5] | AC50 [6] | AC50 [7] | AC50 (Melanocortin receptor 3) | AC50 [8] | AC50 [9]
CN1C(C(=O)Nc2ccccn2)=C(O)c2sc(Cl)cc2S1(=O)=O [LORNOXICAM] | > 10 µM | > 30 µM | > 30 µM | > 10 µM | > 10 µM | > 10 µM | > 30 µM | > 30 µM | > 30 µM | > 10 µM | > 10 µM
Cc1cccc(Nc2ccccc2C(=O)O)c1C [MEFENAMIC ACID] | > 10 µM | > 10 µM | > 10 µM | > 10 µM | > 10 µM | > 10 µM | > 30 µM | > 30 µM | > 10 µM | > 10 µM | > 10 µM
Cc1cn([C@H]2C=C[C@@H](CO)O2)c(=O)[nH]c1=O [STAVUDINE] | 29.9 µM | > 30 µM | > 10 µM | > 10 µM | > 10 µM | > 10 µM | > 10 µM | > 30 µM | > 30 µM | > 10 µM | > 30 µM
CCC(C)n1ncn(-c2ccc(N3CCN(c4ccc(OCC5COC(Cn6cncn6)(c6ccc(Cl)cc6Cl)O5)cc4)CC3)cc2)c1=O (stereo not given) [ITRACONAZOLE] | > 10 µM | > 30 µM | > 30 µM | > 30 µM | > 30 µM | > 30 µM | > 30 µM | > 30 µM | > 30 µM | > 30 µM | > 30 µM
Clc1ccc2nsnc2c1NC1=NCCN1 [TIZANIDINE] | 3.9 µM | > 30 µM | > 10 µM | > 30 µM | > 30 µM | > 10 µM | > 30 µM | > 30 µM | > 30 µM | > 10 µM | > 10 µM
CS(=O)(=O)c1ccc(C2=C(c3ccccc3)C(=O)OC2)cc1 [ROFECOXIB] | > 10 µM | > 30 µM | > 10 µM | > 30 µM | > 30 µM | > 10 µM | > 10 µM | > 30 µM | > 30 µM | > 10 µM | > 10 µM
C[C@]12CCC(=O)C=C1CC[C@@H]1[C@@H]2[C@@H](O)C[C@@]2(C)[C@H]1CC[C@]2(O)C(=O)CO [HYDROCORTISONE] | > 10 µM | > 30 µM | > 10 µM | > 10 µM | > 10 µM | > 10 µM | > 30 µM | > 30 µM | > 30 µM | > 10 µM | > 10 µM
Cn1nnc2c(C(N)=O)ncn2c1=O [TEMOZOLOMIDE] | > 10 µM | > 30 µM | > 30 µM | > 30 µM | > 30 µM | > 30 µM | > 30 µM | > 30 µM | > 30 µM | > 10 µM | > 30 µM
CC[C@H]1OC(=O)[C@H](C)[C@@H](O[C@H]2C[C@@](C)(OC)[C@@H](O)[C@H](C)O2)[C@H](C)[C@@H](O[C@@H]2O[C@H](C)C[C@H](N(C)C)[C@H]2O)[C@](C)(O)C[C@@H](C)CN(C)[C@H](C)[C@@H](O)[C@]1(C)O [AZITHROMYCIN] | > 10 µM | > 30 µM | > 10 µM | > 10 µM | > 10 µM | > 10 µM | > 10 µM | > 30 µM | > 30 µM | > 10 µM | > 10 µM
NCC(CC(=O)O)c1ccc(Cl)cc1 (stereo not given) [BACLOFEN] | > 10 µM | > 30 µM | > 30 µM | > 30 µM | > 30 µM | > 30 µM | > 30 µM | > 30 µM | > 30 µM | > 10 µM | > 30 µM
c1ccc([C@H]2CN3CCSC3=N2)cc1 [LEVAMISOLE] | > 10 µM | > 30 µM | > 30 µM | > 30 µM | > 30 µM | > 30 µM | > 30 µM | 18.8 µM | > 30 µM | > 30 µM | > 30 µM
CC1(C)NC(=O)N(c2ccc([N+](=O)[O-])c(C(F)(F)F)c2)C1=O [NILUTAMIDE] | > 30 µM | > 30 µM | > 30 µM | > 30 µM | > 30 µM | > 30 µM | > 30 µM | > 30 µM | > 30 µM | > 30 µM | > 30 µM
CCOC(=O)[C@H](CCc1ccccc1)N[C@@H](C)C(=O)N1[C@H](C(=O)O)C[C@@H]2CCC[C@@H]21 | > 10 µM | > 30 µM | > 10 µM | > 10 µM | > 10 µM | > 10 µM | > 30 µM | > 30 µM | > 30 µM | > 10 µM | > 10 µM
CC(C)C[C@H]1C(=O)N2CCC[C@H]2[C@]2(O)O[C@](NC(=O)[C@@H]3C=C4c5cccc6[nH]c(Br)c(c56)C[C@H]4N(C)C3)(C(C)C)C(=O)N12 [BROMOCRIPTINE] | 0.197 µM | > 30 µM | > 30 µM | 28 µM | > 30 µM | > 30 µM | > 30 µM | > 30 µM | > 30 µM | 12.8 µM | > 30 µM
C[C@@H](O)[C@H]1C(=O)N2C(C(=O)O)=C(S[C@@H]3CN[C@H](C(=O)N(C)C)C3)[C@H](C)[C@H]12 [MEROPENEM] | > 10 µM | > 300 µM | > 300 µM | > 300 µM | > 300 µM | > 300 µM | > 300 µM | > 30 µM | > 300 µM | > 10 µM | > 300 µM

Source: ChEMBL document CHEMBL5291721, “A preclinical secondary pharmacology resource illuminates target-adverse drug reaction associations of marketed drugs” (Nat Commun, 2023)
